# Data as given in PubChem BioAssay (NCI).
#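 Cultured in 96-well plates, cells were exposed to test compound for 48 hours across five concentrations. GI50 = concentration required for 50% inhibition of growth. At the TGI there is no net growth.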
# Assays:
# Assay in all cases: inhibition of tumour cell growth, NCI panel, 48 h
# [1] = system: K-562 leukemia
# [2] = system: MDA-MB-231 breast
# [3] = system: PC-3 prostate
# [4] = system: 786-0 renal
# [5] = system: NCI-H522 lung
# [6] = system: SW-620 colon
# [7] = system: A549 NSCLC
# [8] = system: HT29 colon
# [9] = system: SK-OV-3 ovarian
# [10] = system: BT-549 breast
Structure (SMILES),GI50 [1] [µM],TGI [1] [µM],GI50 [2] [µM],TGI [2] [µM],GI50 [3] [µM],TGI [3] [µM],GI50 [4] [µM],TGI [4] [µM],GI50 [5] [µM],TGI [5] [µM],GI50 [6] [µM],TGI [6] [µM],GI50 [7] [µM],TGI [7] [µM],GI50 [8] [µM],TGI [8] [µM],GI50 [9] [µM],TGI [9] [µM],GI50 [10] [µM],TGI [10] [µM]
CN1CCN(c2cc(Nc3cc(C4CC4)[nH]n3)nc(Nc3ccc(CC(=O)NCc4cccc(F)c4)cc3)n2)CC1,0.423,11.6,0.451,6.16,0.616,22.8,0.934,4.04,1.53,7.08,0.12,2.72,0.77,11.3,0.379,11.6,0.932,12.9,2.96,19.9
O=C(Nc1ccccc1F)c1ccc(NC2=C(Cl)C(=O)N(Cc3ccccc3)C2=O)cc1,2.68,12.1,2.8,13.8,3.39,12.8,14,27,2.21,5.34,3.29,9.93,13.5,26.3,4.18,13.5,17.6,31.4,3.13,9.62
CC(=O)OC1=C2C(CC3C4CC=C5CC(OC(C)=O)CCC5(C)C4CCC23C)C2C(=O)N(Cc3ccccc3)C(=O)C2C1 (stereo not drawn),4.33,> 100,11.1,72.7,4.03,> 100,20.5,> 100,7.29,58.7,12.2,> 100,4.33,34,3.9,24,17.7,> 100,3.53,13.5
COc1cc(/C=C/C(=O)c2cc(OC)c(OC)c(OC)c2)cc(OC)c1OC,2.46,> 100,6.89,> 100,5.32,27.8,3.07,11.3,3.09,12.1,2.18,5.67,3.74,46.1,3.64,15,11.5,> 100,2.48,9.26
O=[N+]([O-])c1ccc2c(c1)S(=O)c1ccccc1-2 (stereo not drawn),–,> 100,–,> 100,–,> 100,–,> 100,–,> 100,–,> 100,–,> 100,–,> 100,–,> 100,–,> 100
Oc1ccc(-c2nc3ccc4[nH]ncc4c3c3c2CCCC3)c2cccnc12,0.139,33.3,0.423,6.79,0.389,6.56,0.435,3.95,0.119,5.2,0.123,11.1,0.134,2.14,1.09,6.73,0.509,2.26,0.421,2.58
Clc1ccc(-c2cn(-c3ccccc3)c(-c3ccccc3)n2)c(Cl)c1,> 24.6,> 50,23,> 50,5.43,> 50,1.14,2.56,> 24.2,> 50,1.01,2.07,1.77,–,1.79,> 50,5.15,> 35.7,3.42,> 50
COc1cc2c3c(n(C)c(=O)c2cc1OC)-c1cc2c(cc1/C3=C\[C@@H](N)CCCCN)OCO2,2.43,> 72.2,1.54,> 48.5,2.71,> 53.1,2.06,> 100,1.37,> 23.2,1.57,> 100,0.381,–,0.337,> 100,> 26.2,> 100,4.52,28.3
COC(=O)[C@H](Cc1ccccc1)NC(=O)[C@@H](OC)[C@@H]1Cc2cc3cc(OC4CC(OC5CC(O)C(O)C(C)O5)C(O)C(C)O4)c(C)c(O)c3c(O)c2C(=O)[C@H]1OC1CC(OC2CC(OC3CC(C)(O)C(O)C(C)O3)C(O)C(C)O2)C(O)C(C)O1 (stereo partly drawn),0.0312,> 14.3,0.0305,9.09,0.0215,0.429,0.0188,> 14.3,0.0064,1.72,0.0196,> 14.3,0.0532,> 14.3,0.0268,> 14.3,0.0509,> 14.3,0.00713,0.0574
C#CC#CC#CC#CC#CC#CC#CC#CCC1OC[C@H](COC(=O)O[C@@H](C(=O)O[C@H]2C[C@@]3(O)[C@@H](OC(=O)c4ccccc4)[C@@H]4[C@]5(OC(C)=O)CO[C@@H]5C[C@H](O)[C@@]4(C)C(=O)[C@H](OC(C)=O)C(=C2C)C3(C)C)[C@@H](NC(=O)c2ccccc2)c2ccccc2)O1 (stereo partly drawn),0.255,> 33.3,1.27,> 33.3,0.569,> 33.3,8.21,> 33.3,0.648,> 33.3,0.261,> 33.3,0.295,> 33.3,0.114,> 33.3,1.38,> 33.3,1.01,> 33.3
CC(C)(C)c1nnc2n(c1=O)N=CC(c1ccc(Br)cc1)S2 (stereo not drawn),26.5,> 100,24.5,48.1,42.1,> 100,32.3,> 100,19.2,41.7,35.1,> 100,43,> 100,43.8,> 100,89.9,> 100,24.3,74.7
c1ccc2c(c1)ccc1c3ccccc3ccc21,> 50,> 50,> 50,> 50,> 50,> 50,> 50,> 50,> 50,> 50,> 50,> 50,> 50,> 50,> 50,> 50,> 50,> 50,> 50,> 50
